The subject of series [1] is ATCC 10261 Candida albicans. Kind of series: Antifungal activity, growth inhibition of Candida albicans culture. The series is classed as cell-based. Particulars: concentration inducing 50% inhibition of strain growth; liquid Sabouraud medium, 24 hours at 30° C., spectrophotometry at 660 nm. How it is done:
More particularly, each compound was incubated at different concentrations with a culture of ATCC 10261 Candida albicans (inoculum, […]) in liquid Sabouraud medium for 24 hours at 30° C. Cell growth was then measured by spectrophotometry at a wavelength of 660 nm.

For series [2], the system named is 27-mer oligonucleotide (ODN) in 10% (v/v) foetal calf serum. The experiment in a line: Seric degradation of delivered oligonucleotide, gel autoradiography. Particulars: +/− charge ratio 10, 10% (v/v) foetal calf serum, 37° C., up to 16 hours; versus non delivered ODN. The protocol:
A 27-mer oligonucleotide (ODN) was rendered radioactive by labelling at the 5′ end with ^32P using a standard procedure (Pharmacia) using T4 polynucleotide kinase and ^32(γ)ATP. A small quantity of this ^32P labelled ODN was mixed with cold ODN. AmA was added in a concentration such that the +/− charge ratio was 10 and the complex was allowed to form at ambient temperature for 30 minutes. A sample containing no AmA constituted the control (non delivered ODN). ODN degradation was triggered at time 0 at 37° C. by adding 10% (v/v) foetal calf serum in which the enzymatic activity was essentially 3′-exonucleasic (Sirotkin, Cooley et al., 1978). At intervals, samples were removed for which the action of the enzymes was stopped by adding formamide and placing the tube in ice. The reaction wsa stopped after 4, 6, 8 and 16 hours of incubation with the serum. The samples were then migrated on a denaturing (7 M urea) 20% polyacrylamide gel.

For series [3], the system named is 3T3 cells. The experiment in a line: Toxicity of AmA with or without antisense oligonucleotide, MTT cellular viability. Particulars: 4 hours at 37° C.
Series [4] deals with P-gp in NIH-MDR G185 cells (3T3 R). The format is cell-based, human.
Sequence of P-gp in NIH-MDR G185 cells (3T3 R) (P08183 whole entry): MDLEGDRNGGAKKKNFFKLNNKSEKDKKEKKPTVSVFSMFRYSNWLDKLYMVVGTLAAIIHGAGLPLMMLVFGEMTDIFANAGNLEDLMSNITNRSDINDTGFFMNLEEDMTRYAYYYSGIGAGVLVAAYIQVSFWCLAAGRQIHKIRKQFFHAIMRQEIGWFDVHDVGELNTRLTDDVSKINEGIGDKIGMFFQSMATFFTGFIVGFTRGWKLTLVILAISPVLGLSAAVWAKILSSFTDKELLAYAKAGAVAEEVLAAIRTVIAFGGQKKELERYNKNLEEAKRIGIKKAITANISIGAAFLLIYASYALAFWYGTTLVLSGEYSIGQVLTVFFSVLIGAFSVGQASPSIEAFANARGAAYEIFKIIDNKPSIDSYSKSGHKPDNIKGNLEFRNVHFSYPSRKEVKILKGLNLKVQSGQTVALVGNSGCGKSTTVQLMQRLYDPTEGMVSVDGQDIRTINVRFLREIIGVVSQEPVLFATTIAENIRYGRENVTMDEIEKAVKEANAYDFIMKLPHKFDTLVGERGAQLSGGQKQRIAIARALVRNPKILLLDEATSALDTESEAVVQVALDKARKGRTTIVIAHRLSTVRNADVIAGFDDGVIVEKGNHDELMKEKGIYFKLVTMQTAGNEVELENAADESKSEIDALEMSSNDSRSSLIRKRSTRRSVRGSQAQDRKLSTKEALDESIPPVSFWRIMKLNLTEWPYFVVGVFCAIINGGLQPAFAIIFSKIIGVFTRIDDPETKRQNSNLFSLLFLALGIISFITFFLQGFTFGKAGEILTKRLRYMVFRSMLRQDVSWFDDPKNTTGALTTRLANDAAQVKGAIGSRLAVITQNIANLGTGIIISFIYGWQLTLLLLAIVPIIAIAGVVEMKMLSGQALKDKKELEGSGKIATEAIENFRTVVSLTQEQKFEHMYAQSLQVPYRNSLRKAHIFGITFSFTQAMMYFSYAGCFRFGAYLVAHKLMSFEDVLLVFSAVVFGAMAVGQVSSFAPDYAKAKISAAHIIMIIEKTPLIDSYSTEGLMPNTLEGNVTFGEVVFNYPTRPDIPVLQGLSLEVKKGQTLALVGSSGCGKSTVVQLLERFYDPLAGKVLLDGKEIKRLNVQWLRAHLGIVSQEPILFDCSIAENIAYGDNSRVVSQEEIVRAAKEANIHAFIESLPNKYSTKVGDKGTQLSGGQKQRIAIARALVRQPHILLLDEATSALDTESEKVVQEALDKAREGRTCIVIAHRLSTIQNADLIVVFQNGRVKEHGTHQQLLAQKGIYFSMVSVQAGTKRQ
For series [5], the system named is 3T3 cells. Kind of series: Internalisation of FITC-labelled antisense oligonucleotide, confocal microspectrofluorimetry. The conditions noted are these: 4 hours. The format is cell-based.
In series [6] the test system is MCF 7 cells. Kind of series: Internalisation of FITC-labelled anti-gene oligonucleotide. The series is classed as cell-based, human. Particulars: charge ratio 5, compared with AmE, Lipofectine or free oligonucleotides.

Experimental findings from patent US20040002465A1, “Polyene macrolide derivatives, use for vectoring molecules” (UNIVERSITE PIERRE ET MARIE CURIE, priority 1998, published 2004) are described below.

Values after ≈ are worked out from the molar mass of the structure shown.

As a reminder, the IC50 is the concentration that inhibits the measured activity by half. The low end stands for greater potency in that assay, the high end for weaker potency in that assay.

“2-dimethylaminoethyl ester of amphotericin B [AMEE]” displayed an IC50 in series [1] of 0.08 µg/mL.

In the case of `CC1C=CC=CC=CC=CC=CC=CC=CC(OC2OC(C)C(O)C(N)C2O)CC2OC(O)(CC(O)CC(O)C(O)CCC(O)CC(O)CC(=O)OC(C)C(C)C1O)CC(O)C2C(=O)N1CCN(C)CC1` (stereo not drawn) [AMPA, Amphotericin B B-4-methylpiperizyne amide], the IC50 in series [1] was determined as 0.015 µg/mL (≈ 0.0149 µM).

For the compound `CC1C=CC=CC=CC=CC=CC=CC=CC(OC2OC(C)C(O)C(N)C2O)CC2OC(O)(CC(O)CC(O)C(O)CCC(O)CC(O)CC(=O)OC(C)C(C)C1O)CC(O)C2C(=O)NCCc1ccccn1` (stereo not drawn) [AMPEA, Amphotericin B 2-(2-pyridyl)ethylamide], in series [1], the IC50 is 0.015 µg/mL (≈ 0.0146 µM).

“Amphotericin B 3-dimethylaminopropyl ester [AMPE]” showed an IC50 in series [1] of 0.10 µg/mL. On the same count and under the same terms, then “Amphotericin B (N^2-lysyllysine methylester) amide [AMDLA]”, with 0.12 µg/mL; and Amphotericin B N1-sperminylamide [AMSA], with 0.10 µg/mL. As for “Amphotericin B dimethylaminopropylamide [AMA]”, the “seric degradation of the delivered oligonucleotide” value in series [2] is “slowed that degradation”. Besides, the “concentration below which cell growth appears to have been stimulated” value in series [3] (MTT) is recorded as “below 10^−5 M”. In series [3] (serum-free DMEM, AmA in the presence or absence of oligonucleotide), the “concentration below which no toxicity was observed (cellular viability, MTT)” value is recorded as “below 2×10^−5 M”. In series [4], the “synthesis of P-gp, possible vector effect” value is on record as “did not itself inhibit synthesis of P-gp”. In addition, the “intracellular distribution of fluorescence” value in series [5] (nucleus versus cytoplasm) is “distributed homogeneously inside the cells”. The “internalisation of fluorescent oligonucleotide (fluorescence intensity of cells)” value in series [5] (AmA 1×10^−5 M and 2×10^−5 M, compared with AmE, Lipofectine (20 μg/ml) or the oligonucleotides alone) is on record as “much greater internalisation”; in series [6], “much greater internalisation”.

Take “Amphotericin B-2-(morpholyl)ethylamide [AMMEA]”: the IC50 in series [1] was 0.013 µg/mL.

“L-aspartate salt of OAMA [OAMA L-aspartate]” gave an IC50 in series [1] of 0.17 µg/mL. Same read-out and setting: then N-(1-piperdinepropionyl) AME [PAME], with 0.15 µg/mL; and “N-(4-methyl-1-piperazinepropionyl) AMPA [PAMPA]”, with 0.17 µg/mL. “N-(4-methyl-1-piperazinepropionyl)AME [PNAME]” yielded an IC50 in series [1] of 0.16 µg/mL. Still for that read-out and setting: the value for “N-(Nα, Nα, Nα,Nε, Nε, Nε,-hexamethyl) AME [MLAME]” was 0.15 µg/mL.

Compound “N-(N′-3-dimethylaminopropyl-succinimido) amphotericin B methyl ester [SAME]” came in with an IC50 in series [1] of 0.125 µg/mL. In series [1], N-ornithyl-AMA [OAMA] had an IC50 of 0.15 µg/mL.
